Measured values as given in patent US8017792B2, “1-thio-D-glucitol derivatives” (Taisho Pharmaceutical Co., Ltd., priority 2005, dated 2011).
Structures can show the parent of a compound that is named as a salt.

Experiments:
Human SGLT2 = biological target: T1, Human SGLT2 (Homo sapiens, UniProt P31639); assay: Sodium-dependent sugar uptake inhibition test in CHO-K1 cells stably expressing human SGLT2 (Test Example 2); assay type: cell-based; conditions: for IC50: CHO-K1 cells, [14C]methyl-α-D-glucopyranoside 1 mM, 37° C., one hour; for SGLT1/SGLT2: ratio of IC50 human SGLT1 to IC50 human SGLT2
T1 construct: expressed in transfected cells; host or cells: CHO-K1
T1 sequence (P31639 1-672): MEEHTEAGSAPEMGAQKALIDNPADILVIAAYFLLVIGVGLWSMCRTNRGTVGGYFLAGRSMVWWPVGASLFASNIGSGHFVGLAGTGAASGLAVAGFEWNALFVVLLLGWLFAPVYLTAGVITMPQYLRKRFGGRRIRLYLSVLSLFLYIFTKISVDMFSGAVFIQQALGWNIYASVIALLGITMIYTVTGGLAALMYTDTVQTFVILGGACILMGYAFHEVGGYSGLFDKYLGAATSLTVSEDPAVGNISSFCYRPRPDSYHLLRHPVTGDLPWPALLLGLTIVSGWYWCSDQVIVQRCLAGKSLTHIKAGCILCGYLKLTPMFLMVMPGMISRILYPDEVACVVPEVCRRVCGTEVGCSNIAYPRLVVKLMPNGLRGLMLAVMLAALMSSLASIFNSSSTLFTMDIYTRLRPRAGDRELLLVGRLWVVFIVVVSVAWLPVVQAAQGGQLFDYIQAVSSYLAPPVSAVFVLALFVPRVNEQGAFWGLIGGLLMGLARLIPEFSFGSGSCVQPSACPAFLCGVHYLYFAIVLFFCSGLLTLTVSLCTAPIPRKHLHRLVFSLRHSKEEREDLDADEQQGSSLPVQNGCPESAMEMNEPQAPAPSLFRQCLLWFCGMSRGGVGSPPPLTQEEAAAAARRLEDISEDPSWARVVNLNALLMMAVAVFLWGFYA
Protocol: (§1) Human SGLT1 sequence (NM_000343) was reverse-transcripted from human small intestinal mRNA, then amplified, and then introduced into pCMV-tag5A from Stratagene Corporation. Human SGLT2 sequence (NM_003041) was prepared from human nephric mRNA as with the above method, and then introduced into pcDNA3.1+hygro from Invitrogen Corporation. Each cloned sequence was confirmed to be identical with the reported sequence.
(§2) CHO-K1 cells were transfected with the human SGLT1 and human SGLT2 expression vectors using Lipofectamine 2000 (Invitrogen Corporation). SGLT expression cells were cultured in the presence of geneticin (SGLT1) or hygromycin B (SGLT2) of the concentration of 500 μg/mL to select resistant strains. Cells were obtained using sugar uptake specific activity as an index in the following system.
(§3) Cells stably expressing human SGLT1 and human SGLT2 were used in the sodium-dependent sugar uptake activity inhibition test. Cells were incubated in 1 mL of a pretreatment buffer solution (140 mM choline chloride, 2 mM KCl, 1 mM CaCl2, 1 mM MgCl2, 10 mM HEPES/5 mM Tris, pH 7.4) for 20 minutes. The pretreatment buffer solution was removed and 200 μL of an uptake buffer containing test compounds (methyl-α-D-glucopyranoside containing [^14C]methyl-α-D-glucopyranoside (0.1 mM for SGLT1 inhibition, 1 mM for SGLT2 inhibition), 140 mM NaCl, 2 mM KCl, 1 mM CaCl2, 1 mM MgCl2, 10 mM HEPES/5 mM Tris, pH 7.4) were added, and uptake reaction was performed at 37° C. for 30 minutes (SGLT1) or for one hour (SGLT2). After the reaction, cells were washed with 1 mL of a washing buffer (10 mM methyl-α-D-glucopyranoside, 140 mM choline chloride, 2 mM KCl, 1 mM CaCl2, 1 mM MgCl2, 10 mM HEPES/5 mM Tris, pH 7.4) twice and dissolved in 400 μL of 0.2 M NaOH solution. After Aquazole 2 (Perkin Elmer Corporation) was added and mixed well, radioactivity was measured with a liquid scintillation counter (Beckman Coulter Corporation). A buffer for uptake which contained no test compound was prepared as a control group. Another buffer solution for uptake containing choline chloride in place of NaCl was also prepared for basic uptake.

Human SGLT1 = biological target: T2, Human SGLT1 (Homo sapiens, UniProt P13866); assay: Sodium-dependent sugar uptake inhibition test in CHO-K1 cells stably expressing human SGLT1 (Test Example 2); assay type: cell-based; conditions: [14C]methyl-α-D-glucopyranoside 0.1 mM, 37° C., 30 minutes
T2 construct: expressed in transfected cells; host or cells: CHO-K1
T2 sequence (P13866 1-664): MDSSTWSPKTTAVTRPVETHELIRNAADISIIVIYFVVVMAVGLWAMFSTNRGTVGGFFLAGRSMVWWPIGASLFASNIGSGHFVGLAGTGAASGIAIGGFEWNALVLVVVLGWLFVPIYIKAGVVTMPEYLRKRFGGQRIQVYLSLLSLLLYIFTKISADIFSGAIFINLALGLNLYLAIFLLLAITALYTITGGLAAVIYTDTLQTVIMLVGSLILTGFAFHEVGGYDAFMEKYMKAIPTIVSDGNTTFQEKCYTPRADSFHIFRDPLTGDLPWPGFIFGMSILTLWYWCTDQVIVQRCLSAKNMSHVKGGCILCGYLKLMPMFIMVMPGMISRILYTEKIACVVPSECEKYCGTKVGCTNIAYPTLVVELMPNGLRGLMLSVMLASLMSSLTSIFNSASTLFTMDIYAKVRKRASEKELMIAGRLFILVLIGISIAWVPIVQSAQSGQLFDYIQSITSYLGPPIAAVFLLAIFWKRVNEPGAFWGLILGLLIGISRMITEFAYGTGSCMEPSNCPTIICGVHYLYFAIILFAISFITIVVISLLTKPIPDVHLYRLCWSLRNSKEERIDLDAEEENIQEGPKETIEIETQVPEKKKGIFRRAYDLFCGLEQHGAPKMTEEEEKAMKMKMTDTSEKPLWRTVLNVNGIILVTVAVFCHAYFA
Protocol: as §1, §2, §3

| SMILES | melting point | IC50 (Human SGLT2) | SGLT1/SGLT2 (Human SGLT2) | IC50 (Human SGLT1) |
| --- | --- | --- | --- | --- |
| CCOc1ccc(Cc2cc([C@@H]3S[C@H](CO)[C@@H](O)[C@H](O)[C@H]3O)c(OC)cc2Cl)cc1 (as salt: Na) [Compound 99, (1S)-1,5-anhydro-1-[4-chloro-5-(4-ethoxybenzyl)-2-methoxyphenyl]-1-thio-D-glucitol] | 177 to 179 °C | – | – | – |
| CCc1ccc(Cc2cccc([C@@H]3S[C@H](COCc4ccccc4)[C@@H](OCc4ccccc4)[C@H](OCc4ccccc4)[C@H]3OCc3ccccc3)c2)cc1 [Compound 1, (1S)-1,5-anhydro-2,3,4,6-tetra-O-benzyl-1-[3-(4-ethylbenzyl)phenyl]-1-thio-D-glucitol] | 100 to 102.5 °C | – | – | – |
| CCOc1ccc(Cc2cc([C@@H]3S[C@H](COCc4ccccc4)[C@@H](OCc4ccccc4)[C@H](OCc4ccccc4)[C@H]3OCc3ccccc3)ccc2Cl)cc1 [Compound 3] | 126 to 128 °C | – | – | – |
| COc1ccc([C@@H]2S[C@H](COCc3ccccc3)[C@@H](OCc3ccccc3)[C@H](OCc3ccccc3)[C@H]2OCc2ccccc2)cc1Cc1cc2ccccc2s1 [Compound 56] | 133 to 135 °C | – | – | – |
| Clc1ccc([C@@H]2S[C@H](COCc3ccccc3)[C@@H](OCc3ccccc3)[C@H](OCc3ccccc3)[C@H]2OCc2ccccc2)cc1Cc1cc2ccccc2s1 [Compound 57] | 140 to 143 °C | – | – | – |
| CCOc1cc(F)c(Cc2cc([C@@H]3S[C@H](CO)[C@@H](O)[C@H](O)[C@H]3O)ccc2Cl)cc1F [Compound 83, (1S)-1,5-Anhydro-1-[4-chloro-3-(2,5-difluoro-4-ethoxybenzyl)phenyl]-1-thio-D-glucitol] | 72 to 76 °C | 30 nM | 48.7 | 1.5 µM |
| CCOc1ccc(Cc2cc([C@@H]3S[C@H](CO)[C@@H](O)[C@H](O)[C@H]3O)ccc2Cl)cc1F [Compound 84, (1S)-1,5-Anhydro-1-[4-chloro-3-(3-fluoro-4-ethoxybenzyl)phenyl]-1-thio-D-glucitol] | 73 to 81 °C | 170 nM | 12.5 | 2.1 µM |
| CCOc1ccc(Cc2cc([C@@H]3S[C@H](CO)[C@@H](O)[C@H](O)[C@H]3O)ccc2Cl)cc1Cl [Compound 85, (1S)-1,5-Anhydro-1-[4-chloro-3-(3-chloro-4-ethoxybenzyl)phenyl]-1-thio-D-glucitol] | 79 to 82 °C | 1270 nM | 4.8 | 6.1 µM |
| CCOc1ccc(Cc2cc([C@@H]3S[C@H](CO)[C@@H](O)[C@H](O)[C@H]3O)c(O)cc2O)cc1 [Compound 100, (1S)-1,5-Anhydro-1-[3-(4-ethoxybenzyl)-4,6-dihydroxyphenyl]-1-thio-D-glucitol] | 186 to 190 °C | 1520 nM | 2.9 | 4.4 µM |
| CCc1ccc(Cc2cc([C@@H]3S[C@H](CO)[C@@H](O)[C@H](O)[C@H]3O)c(OC)cc2Cl)cc1 [Compound 102, (1S)-1,5-Anhydro-1-[4-chloro-3-(4-ethylbenzyl)-6-methoxyphenyl]-1-thio-D-glucitol] | – | 40 nM | 86.6 | 3.5 µM |
| COc1cc(Cl)c(Cc2ccc(C(C)C)cc2)cc1[C@@H]1S[C@H](CO)[C@@H](O)[C@H](O)[C@H]1O [Compound 103, (1S)-1,5-Anhydro-1-[4-chloro-3-(4-isopropylbenzyl)-6-methoxyphenyl]-1-thio-D-glucitol] | – | 69 nM | 347.9 | 23.9 µM |
| COc1cc(C)c(Cc2ccc(C)cc2)cc1[C@@H]1S[C@H](CO)[C@@H](O)[C@H](O)[C@H]1O [Compound 104, (1S)-1,5-Anhydro-1-[3-(4-methylbenzyl)-6-methoxy-4-methylphenyl]-1-thio-D-glucitol] | – | 34 nM | 29.8 | 1 µM |
| COc1cc(C)c(Cc2ccc(C(C)C)cc2)cc1[C@@H]1S[C@H](CO)[C@@H](O)[C@H](O)[C@H]1O [Compound 105, (1S)-1,5-Anhydro-1-[3-(4-isopropylbenzyl)-6-methoxy-4-methylphenyl]-1-thio-D-glucitol] | – | 93 nM | 182.5 | 17 µM |
| OC[C@H]1S[C@@H](c2cccc(Cc3cc4ccccc4s3)c2)[C@H](O)[C@@H](O)[C@@H]1O [Compound 129, (1S)-1,5-Anhydro-1-[3-[(1-benzothien-2-yl)methyl]-phenyl]-1-thio-D-glucitol] | 159.5 to 160 °C | 3000 nM | 4.3 | 12.8 µM |
| COc1ccc(Cc2cc3ccccc3s2)cc1[C@@H]1S[C@H](CO)[C@@H](O)[C@H](O)[C@H]1O [Compound 130, (1S)-1,5-Anhydro-1-[3-[(1-benzothien-2-yl)methyl]-6-methoxyphenyl]-1-thio-D-glucitol] | 97.5 to 98 °C | 2120 nM | – | > 10 µM |
| COc1cc(OC)c([C@@H]2S[C@H](CO)[C@@H](O)[C@H](O)[C@H]2O)cc1Cc1cc2ccccc2s1 [Compound 131, (1S)-1,5-Anhydro-1-[3-[(1-benzothien-2-yl)methyl]-4,6-dimethoxyphenyl]-1-thio-D-glucitol] | – | 890 nM | 4.7 | 4.1 µM |
| OC[C@H]1S[C@@H](c2ccc(Cl)c(Cc3cc4ccccc4o3)c2)[C@H](O)[C@@H](O)[C@@H]1O [Compound 132, (1S)-1,5-Anhydro-1-[3-[(1-benzofuran-2-yl)methyl]-4-chlorophenyl]-1-thio-D-glucitol] | – | 497 nM | 8.9 | 4.4 µM |
